Laboratory results: patent US20040082550A1, “Tropolone derivative” (priority 2000, published 2004)

Experiments:
[1] = tested on: promyelocyte leukemia cell strain HL-60; test: Test for induction of cell differentiation in HL-60 cells (NBT reduction ability); type: cell-based; conditions: for Ratio of cells for which differentiation was induced by each compound alone (%): calculated from NBT reduction ability; for Ratio of cells for which differentiation was induced by each compound in combination with 1 × 10^−7 M of HX630 (%): in combination with 1×10^−7 M HX630 (retinoid synergist)
Procedure: For each of the compounds of the examples, action for inducing cell differentiation was examined for each alone and in combination with 1×10^−7 M of HX630. According to the methods described in Japanese Patent Unexamined Publication (KOKAI) No. (Sho)61-76440/1986, differentiation of the cells of promyelocyte leukemia cell strain HL-60 into granulocytic series cells was determined based on morphological change and measurement of ability to reduce nitro blue tetrazolium (NBT). The ratios (%) of differentiated cells shown in the following table are those calculated from NBT reduction ability. HX630 is a retinoid synergist that enhances actions of retinoids, and the concentrations of −8, −7 and −6 mean that each compound was added at concentrations of 1×10^−8 M, 1×10^−7 M and 1×10^−6 M, respectively.

[2] = compound concentration -6 (1×10^−6 M)
[3] = compound concentration -7 (1×10^−7 M)
[4] = compound concentration -8 (1×10^−8 M)

Structure (SMILES)	melting point [°C]	Ratio of cells for which differentiation was induced by each compound alone (%) ([1]; concentration -6 (1×10^−6 M))	Ratio of cells for which differentiation was induced by each compound alone (%) ([1]; concentration -7 (1×10^−7 M))	Ratio of cells for which differentiation was induced by each compound alone (%) ([1]; concentration -8 (1×10^−8 M))	Ratio of cells for which differentiation was induced by each compound in combination with 1 × 10^−7 M of HX630 (%) [1, 2] [%]	Ratio of cells for which differentiation was induced by each compound in combination with 1 × 10^−7 M of HX630 (%) [1, 3] [%]	Ratio of cells for which differentiation was induced by each compound in combination with 1 × 10^−7 M of HX630 (%) [1, 4] [%]
COc1ccc(C(=O)Nc2ccc(O)c(=O)cc2)cc1C12CC3CC(CC(C3)C1)C2 [Tp88]	142	46	1.2	0.9	62	14	2.6
CC1(C)CCC(C)(C)c2cc(-c3ccc(O)c(=O)cc3)ccc21 [Tp05]	161	13	0.5	0.6	35	1.2	1.2
CC1(C)CCC(C)(C)c2cc(NC(=O)Nc3ccc(O)c(=O)cc3)ccc21 [Tp30]	–	1.2	1.5	1.3	20	2.3	2.5
CC1(C)CCC(C)(C)c2cc(S(=O)(=O)Nc3ccc(O)c(=O)cc3)ccc21 [Tp40]	–	2.3	0.9	1.3	2	2.5	1.8
CC1(C)CCC(C)(C)c2cc(CCc3ccc(O)c(=O)cc3)ccc21 [Tp150]	–	60	5.4	1.5	50	80	9
CC1(C)CCC(C)(C)c2cc(C=CC=CC(=O)Nc3ccc(O)c(=O)cc3)ccc21 [Tp95]	–	0.3	0.5	0.5	1.7	0.5	0.8
CC1(C)CCC(C)(C)c2cc(-c3cccc(-c4ccc(O)c(=O)cc4)c3)ccc21 [Tp190]	–	0	32	1.6	50	90	77
CC(C)(C)c1cc(N=Nc2ccc(O)c(=O)cc2)cc(C(C)(C)C)c1 [Tp170]	–	2.3	0.8	1.1	10	2.3	0.5
